From patent publication US7410635B2 (priority 2003, dated 2008)

Conditions: pH 3

In the case of C=CCC1(CC(C)C)C(=O)NC(=O)NC1=O [Butalbital, 5-(2-Methylpropyl)-5-(2-propenyl)-2,4,6(1H,3H,5H) -pyrim idinetrione], the average degradation is reported as 1.2%.
